Numbers after ± are expanded uncertainties.
Test: molar heat capacity at constant pressure
Conditions: 101.33 kPa, Crystal, Small (less than 1 g) adiabatic calorimetry

N[C@@H](Cc1c[nH]c2ccccc12)C(=O)O [L-tryptophan]
Conditions	molar heat capacity at constant pressure [J/K/mol]
5 K	0.6568 ± 0.042
7.14 K	1.912 ± 0.091
7.31 K	2.029 ± 0.1
7.49 K	2.253 ± 0.1
7.66 K	2.22 ± 0.1
7.83 K	2.345 ± 0.11
8.01 K	2.511 ± 0.12
8.17 K	2.719 ± 0.12
8.33 K	2.893 ± 0.13
8.49 K	3.026 ± 0.13
8.64 K	3.118 ± 0.14
8.8 K	3.193 ± 0.14
8.95 K	3.5 ± 0.16
9.1 K	3.492 ± 0.16
9.25 K	3.783 ± 0.17
9.39 K	4.024 ± 0.17
9.54 K	4.041 ± 0.17
9.69 K	4.141 ± 0.18
9.83 K	4.34 ± 0.19
9.98 K	4.506 ± 0.2
10 K	4.49 ± 0.17
10.17 K	4.656 ± 0.2
10.41 K	4.889 ± 0.21
10.66 K	5.08 ± 0.22
10.9 K	5.363 ± 0.23
11.14 K	5.712 ± 0.25
11.39 K	5.978 ± 0.26
11.63 K	6.153 ± 0.26
11.88 K	6.419 ± 0.27
12.12 K	6.768 ± 0.29
12.37 K	7.009 ± 0.3
12.62 K	7.325 ± 0.31
12.87 K	7.591 ± 0.32
13.12 K	7.874 ± 0.33
13.37 K	8.132 ± 0.34
13.62 K	8.481 ± 0.36
13.87 K	8.697 ± 0.37
14.12 K	8.988 ± 0.38
14.37 K	9.37 ± 0.39
14.63 K	9.612 ± 0.4
14.89 K	9.994 ± 0.42
15 K	10.06 ± 0.33
15.14 K	10.24 ± 0.42
15.4 K	10.54 ± 0.44
15.65 K	10.85 ± 0.46
15.91 K	11.26 ± 0.47
16.17 K	11.59 ± 0.48
16.42 K	11.93 ± 0.5
16.68 K	12.31 ± 0.52
16.94 K	12.6 ± 0.52
17.2 K	12.88 ± 0.53
17.46 K	13.23 ± 0.55
17.72 K	13.64 ± 0.57
17.98 K	13.93 ± 0.57
18.24 K	14.28 ± 0.59
18.5 K	14.56 ± 0.6
18.77 K	14.98 ± 0.62
19.04 K	15.27 ± 0.63
19.3 K	15.67 ± 0.65
19.56 K	16.11 ± 0.67
19.82 K	16.35 ± 0.67
20 K	16.55 ± 0.67
20.09 K	16.75 ± 0.28
20.64 K	17.32 ± 0.29
21.4 K	18.33 ± 0.31
22.16 K	19.27 ± 0.32
22.93 K	20.25 ± 0.33
23.7 K	21.21 ± 0.35
24.47 K	22.27 ± 0.37
25 K	22.95 ± 0.42
25.24 K	23.36 ± 0.37
26.01 K	24.35 ± 0.39
26.79 K	25.26 ± 0.4
27.56 K	26.17 ± 0.41
28.34 K	27.19 ± 0.42
29.12 K	28.15 ± 0.43
29.9 K	29.13 ± 0.45
30 K	29.35 ± 0.42
30.69 K	30.2 ± 0.47
31.47 K	31.22 ± 0.47
32.25 K	32.16 ± 0.49
33.04 K	33.14 ± 0.5
33.83 K	34.04 ± 0.52
34.62 K	34.9 ± 0.52
35 K	35.34 ± 0.5
35.41 K	35.81 ± 0.54
36.19 K	36.73 ± 0.56
36.98 K	37.56 ± 0.57
37.77 K	38.4 ± 0.57
38.56 K	39.29 ± 0.59
39.36 K	40.19 ± 0.61
40 K	40.82 ± 0.58
40.15 K	40.92 ± 0.39
40.94 K	41.77 ± 0.4
41.73 K	42.6 ± 0.41
42.53 K	43.43 ± 0.42
43.32 K	44.32 ± 0.42
44.11 K	45.14 ± 0.43
44.91 K	45.95 ± 0.44
45 K	45.9 ± 0.42
45.71 K	46.69 ± 0.44
46.51 K	47.37 ± 0.45
47.31 K	48.09 ± 0.46
48.11 K	48.71 ± 0.46
48.9 K	49.39 ± 0.47
49.7 K	50.03 ± 0.47
50 K	50.55 ± 0.42
50.5 K	50.81 ± 0.48
51.3 K	51.51 ± 0.48
52.1 K	52.37 ± 0.49
52.9 K	53.35 ± 0.5
53.7 K	54.34 ± 0.51
54.5 K	55.43 ± 0.52
55.3 K	55.65 ± 0.52
56.1 K	56.39 ± 0.52
56.9 K	57.23 ± 0.53
57.7 K	57.95 ± 0.54
58.51 K	58.68 ± 0.55
59.31 K	59.42 ± 0.56
60 K	60.03 ± 0.58
60.12 K	60.15 ± 0.56
60.92 K	60.88 ± 0.57
61.73 K	61.6 ± 0.57
62.52 K	62.33 ± 0.58
63.32 K	63.58 ± 0.59
64.13 K	64.21 ± 0.6
64.93 K	64.88 ± 0.6

Reference: the NIST ThermoML archive (doi:10.1016/j.jct.2016.09.041)
